Laboratory results as given in patent publication US12552846B2, “Modified BCL9 mimetic peptides” (Sapience Therapeutics, Inc., priority 2019, dated 2026).
Square brackets hold non-standard residues; d marks the D form. Peptide text beside a SMILES is read from it. * marks the point of attachment. Octanoyl = CCCCCCCC(=O)*

Test system: HL60 promyelocytic leukemia cells
Test: Cytotoxicity assay in HL60 cells (Annexin V FITC / PI flow cytometry)
Assay type: cell-based
Settings: 48 hours, 0-80 μM, % Viability (Annexin V low, PI low)
Description: We examined the cytotoxicity of peptides BCL-26 and BCL-27 using an assay in HL60 promyelocytic leukemia cells. HL60 PML suspension cells were set at a density of 3.5×10^3 cells/well in 150 μL of RPMI+1.5% fetal bovine serum (FBS) in a 96 well dish. BCL-26 or BCL-27, reconstituted at a concentration of 10 mg/mL in 20 mM His, pH 7.5, was added to each well at a volume of 50 μL to a final concentration range of 0-80 μM. Cells were incubated with peptide for 48 hours at 37° C. Cell viability was quantified by flow cytometry using abcam Annexin V FITC apoptosis detection kit. Briefly, cells were washed with PBS and resuspended in 1× assay buffer containing Annexin V FITC and propidium iodide (PI). Annexin V detects apoptotic cells, and PI stains dead cells. After staining, apoptotic cells show green fluorescence, dead cells show red and green fluorescence, and live cells show little or no fluorescence. Cells were selected for analysis based on forward scatter (FSC) vs. side scatter (SSC), and analyzed by BD Accuri C6 Plus flow cytometer to detect Annexin V-FITC binding (Ex=488 nm; Em=530 nm) using FITC signal detector and PI staining by the phycoerythrnn emission signal detector. Percentage of Annexin V^low and PI^low were quantified and presented as % Viability.
We examined the cytotoxicity of additional retro inverso and mixed chirality BCL9 mimetic peptides in HL60 cells using the assay described above.

Structure (SMILES) | EC50 [nM]
CC(C)C[C@@H](NC(=O)[C@@H](Cc1c[nH]c2ccccc12)NC(=O)[C@H](N)Cc1c[nH]c2ccccc12)C(=O)N[C@H](C)C(=O)N[C@H](CCCNC(=N)N)C(=O)N[C@H](CCC(N)=O)C(=O)N[C@H](CC(C)C)C(=O)N[C@H](CCC(=O)O)C(=O)N[C@H](CCCNC(=N)N)C(=O)N[C@H](CC(C)C)C(=O)N[C@H](C)C(=O)N[C@H](CCCNC(=N)N)C(=O)N[C@H](CC(C)C)C(=O)N[C@H](C)C(=O)N[C@H](CCCCN)C(=O)N[C@H](CC(C)C)C(=O)N[C@@H](C(=O)N1CCC[C@@H]1C(=O)N[C@@H](C(=O)O)C(C)C)[C@H](C)O [BCL-86] (H-[dW][dW][dL][dA][dR][dQ][dL][dE][dR][dL][dA][dR][dL][dA][dK][dL][dT][dP][dV]-OH; N-terminus and C-terminus assumed) | < 2000
CC(C)C[C@@H](NC(=O)[C@@H](Cc1c[nH]c2ccccc12)NC(=O)[C@H](N)Cc1c[nH]c2ccccc12)C(=O)N[C@H](C)C(=O)N[C@H](CCCNC(=N)N)C(=O)N[C@H](CCC(N)=O)C(=O)N[C@H](CC(C)C)C(=O)N[C@H](CCC(=O)O)C(=O)N[C@H](CCCNC(=N)N)C(=O)N[C@H](CC(C)C)C(=O)N[C@H](CCCNC(=N)N)C(=O)N[C@H](CCCNC(=N)N)C(=O)N[C@H](CC(C)C)C(=O)N[C@H](C)C(=O)N[C@H](CCCCN)C(=O)N[C@H](CC(C)C)C(=O)N[C@@H](C(=O)N1CCC[C@@H]1C(=O)N[C@@H](C(=O)O)C(C)C)[C@H](C)O [BCL-88] (H-[dW][dW][dL][dA][dR][dQ][dL][dE][dR][dL][dR][dR][dL][dA][dK][dL][dT][dP][dV]-OH; N-terminus and C-terminus assumed) | < 2000
CC(C)C[C@@H](NC(=O)[C@@H](Cc1c[nH]c2ccccc12)NC(=O)[C@H](N)Cc1c[nH]c2ccccc12)C(=O)N[C@H](C)C(=O)N[C@H](CCCNC(=N)N)C(=O)N[C@H](CCC(N)=O)C(=O)N[C@H](CC(C)C)C(=O)N[C@H](C)C(=O)N[C@H](CCCNC(=N)N)C(=O)N[C@H](CC(C)C)C(=O)N[C@H](CCCCN)C(=O)N[C@H](CCC(N)=O)C(=O)N[C@H](CC(C)C)C(=O)N[C@H](C)C(=O)N[C@H](CCCCN)C(=O)N[C@H](CC(C)C)C(=O)N[C@@H](C(=O)N1CCC[C@@H]1C(=O)N[C@@H](C(=O)O)C(C)C)[C@H](C)O [BCL-89] (H-[dW][dW][dL][dA][dR][dQ][dL][dA][dR][dL][dK][dQ][dL][dA][dK][dL][dT][dP][dV]-OH; N-terminus and C-terminus assumed) | 2000 to 10000
CC(C)C[C@@H](NC(=O)[C@@H](Cc1c[nH]c2ccccc12)NC(=O)[C@H](N)Cc1c[nH]c2ccccc12)C(=O)N[C@H](C)C(=O)N[C@H](CCCNC(=N)N)C(=O)N[C@H](CCC(N)=O)C(=O)N[C@H](CC(C)C)C(=O)N[C@H](CCC(=O)O)C(=O)N[C@H](CCCNC(=N)N)C(=O)N[C@H](CC(C)C)C(=O)N[C@H](C)C(=O)N[C@H](CCCCN)C(=O)N[C@H](CC(C)C)C(=O)N[C@H](C)C(=O)N[C@H](CCCCN)C(=O)N[C@H](CC(C)C)C(=O)N[C@@H](C(=O)N1CCC[C@@H]1C(=O)N[C@@H](C(=O)O)C(C)C)[C@H](C)O [BCL-90] (H-[dW][dW][dL][dA][dR][dQ][dL][dE][dR][dL][dA][dK][dL][dA][dK][dL][dT][dP][dV]-OH; N-terminus and C-terminus assumed) | 2000 to 10000
CC(C)C[C@@H](NC(=O)[C@@H](CCCNC(=N)N)NC(=O)[C@@H](C)NC(=O)[C@@H](CC(C)C)NC(=O)[C@@H](CCC(N)=O)NC(=O)[C@@H](CCCNC(=N)N)NC(=O)[C@H](NC(=O)[C@@H](CC(C)C)NC(=O)[C@@H](Cc1c[nH]c2ccccc12)NC(=O)[C@H](N)Cc1c[nH]c2ccccc12)C(C)C)C(=O)N[C@H](C)C(=O)N[C@H](CCC(N)=O)C(=O)N[C@H](CC(C)C)C(=O)N[C@H](C)C(=O)N[C@H](CCCCN)C(=O)N[C@H](CC(C)C)C(=O)N[C@@H](C(=O)N1CCC[C@@H]1C(=O)N[C@@H](C(=O)O)C(C)C)[C@H](C)O [BCL-91a] (H-[dW][dW][dL][dV][dR][dQ][dL][dA][dR][dL][dA][dQ][dL][dA][dK][dL][dT][dP][dV]-OH; N-terminus and C-terminus assumed) | < 2000
CCCCCCCC(=O)N[C@H](Cc1c[nH]c2ccccc12)C(=O)N[C@H](Cc1c[nH]c2ccccc12)C(=O)N[C@H](CC(C)C)C(=O)N[C@@H](C(=O)N[C@H](CCCNC(=N)N)C(=O)N[C@H](CCC(N)=O)C(=O)N[C@H](CC(C)C)C(=O)N[C@H](C)C(=O)N[C@H](CCCNC(=N)N)C(=O)N[C@H](CC(C)C)C(=O)N[C@H](C)C(=O)N[C@H](CCC(N)=O)C(=O)N[C@H](CC(C)C)C(=O)N[C@H](C)C(=O)N[C@H](CCCCN)C(=O)N[C@H](CC(C)C)C(=O)N[C@@H](C(=O)N1CCC[C@@H]1C(=O)N[C@@H](C(=O)O)C(C)C)[C@H](C)O)C(C)C [BCL-91b] (Octanoyl-[dW][dW][dL][dV][dR][dQ][dL][dA][dR][dL][dA][dQ][dL][dA][dK][dL][dT][dP][dV]-OH; C-terminus assumed) | < 2000
CC(C)C[C@@H](NC(=O)[C@@H](CCC(N)=O)NC(=O)[C@@H](C)NC(=O)[C@@H](CC(C)C)NC(=O)[C@@H](CCCNC(=N)N)NC(=O)[C@@H](C)NC(=O)[C@@H](CC(C)C)NC(=O)[C@@H](CCC(N)=O)NC(=O)[C@@H](CCCNC(=N)N)NC(=O)[C@@H](C)NC(=O)[C@@H](CC(C)C)NC(=O)[C@@H](Cc1c[nH]c2ccccc12)NC(=O)[C@@H](Cc1c[nH]c2ccccc12)NC(=O)CNC(=O)[C@@H](CCCNC(=N)N)NC(=O)CNC(=O)[C@@H](CC(=O)O)NC(=O)[C@@H](CO)NC(=O)[C@H]1CCCN1)C(=O)N[C@H](C)C(=O)O [BCL-92] (H-[dP][dS][dD]G[dR]G[dW][dW][dL][dA][dR][dQ][dL][dA][dR][dL][dA][dQ][dL][dA]-OH; N-terminus and C-terminus assumed) | 2000 to 10000
CC(C)C[C@@H](NC(=O)[C@@H](Cc1c[nH]c2ccccc12)NC(=O)[C@@H](N)Cc1c[nH]c2ccccc12)C(=O)N[C@H](C)C(=O)N[C@H](CCCNC(=N)N)C(=O)N[C@H](CCC(N)=O)C(=O)N[C@H](CC(C)C)C(=O)N[C@H](C)C(=O)N[C@H](CCCNC(=N)N)C(=O)N[C@H](CC(C)C)C(=O)N[C@H](C)C(=O)N[C@H](CCC(N)=O)C(=O)N[C@H](CC(C)C)C(=O)N[C@H](C)C(=O)N[C@H](CCCCN)C(=O)N[C@H](CC(C)C)C(=O)N[C@@H](C(=O)N1CCC[C@@H]1C(=O)N[C@@H](C(=O)O)C(C)C)[C@H](C)O [BCL-95] (H-W[dW][dL][dA][dR][dQ][dL][dA][dR][dL][dA][dQ][dL][dA][dK][dL][dT][dP][dV]-OH; N-terminus and C-terminus assumed) | < 2000
CC(C)C[C@@H](NC(=O)[C@@H](Cc1c[nH]c2ccccc12)NC(=O)[C@@H](N)Cc1c[nH]c2ccccc12)C(=O)N[C@H](C)C(=O)N[C@H](CCCNC(=N)N)C(=O)N[C@H](CCC(N)=O)C(=O)N[C@H](CC(C)C)C(=O)N[C@H](C)C(=O)N[C@H](CCCNC(=N)N)C(=O)N[C@H](CC(C)C)C(=O)N[C@H](CCCNC(=N)N)C(=O)N[C@H](CCC(N)=O)C(=O)N[C@H](CC(C)C)C(=O)N[C@H](C)C(=O)N[C@H](CCCCN)C(=O)N[C@H](CC(C)C)C(=O)N[C@@H](C(=O)N1CCC[C@@H]1C(=O)N[C@@H](C(=O)O)C(C)C)[C@H](C)O [BCL-96] (H-W[dW][dL][dA][dR][dQ][dL][dA][dR][dL][dR][dQ][dL][dA][dK][dL][dT][dP][dV]-OH; N-terminus and C-terminus assumed) | < 2000
CC(C)C[C@@H](NC(=O)[C@@H](Cc1c[nH]c2ccccc12)NC(=O)[C@@H](N)Cc1c[nH]c2ccccc12)C(=O)N[C@H](C)C(=O)N[C@H](CCCNC(=N)N)C(=O)N[C@H](CCC(N)=O)C(=O)N[C@H](CC(C)C)C(=O)N[C@H](CCC(=O)O)C(=O)N[C@H](CCCNC(=N)N)C(=O)N[C@H](CC(C)C)C(=O)N[C@H](CCCNC(=N)N)C(=O)N[C@H](CCCNC(=N)N)C(=O)N[C@H](CC(C)C)C(=O)N[C@H](C)C(=O)N[C@H](CCCCN)C(=O)N[C@H](CC(C)C)C(=O)N[C@@H](C(=O)N1CCC[C@@H]1C(=O)N[C@@H](C(=O)O)C(C)C)[C@H](C)O [BCL-97] (H-W[dW][dL][dA][dR][dQ][dL][dE][dR][dL][dR][dR][dL][dA][dK][dL][dT][dP][dV]-OH; N-terminus and C-terminus assumed) | < 2000
CC(C)C[C@@H](NC(=O)[C@@H](Cc1c[nH]c2ccccc12)NC(=O)[C@@H](N)Cc1c[nH]c2ccccc12)C(=O)N[C@H](C)C(=O)N[C@H](CCCNC(=N)N)C(=O)N[C@H](CCC(N)=O)C(=O)N[C@H](CC(C)C)C(=O)N[C@H](CCC(=O)O)C(=O)N[C@H](CCCNC(=N)N)C(=O)N[C@H](CC(C)C)C(=O)N[C@H](C)C(=O)N[C@H](CCCNC(=N)N)C(=O)N[C@H](CC(C)C)C(=O)N[C@H](C)C(=O)N[C@H](CCCCN)C(=O)N[C@H](CC(C)C)C(=O)N[C@@H](C(=O)N1CCC[C@@H]1C(=O)N[C@@H](C(=O)O)C(C)C)[C@H](C)O [BCL-98] (H-W[dW][dL][dA][dR][dQ][dL][dE][dR][dL][dA][dR][dL][dA][dK][dL][dT][dP][dV]-OH; N-terminus and C-terminus assumed) | 2000 to 10000
